From patent US20240117303A1, “METHODS AND COMPOSITIONS FOR GENERATING HUMAN MIDBRAIN DOPAMINERGIC NEURONS FROM NEURAL PROGENITOR CELLS” (Trailhead Biosystems Inc., priority 2022, published 2024) come the findings set out here.

“Also recorded” adds a separate entry of the source.

For test [1], the system named is stage 1 neural stem cells. The test can be described thus: HD-DoE 12-factor experiment for stage 2 recipe (second model, FIG. 8-10, 13). Type of test: cell-based, human. The note with it: for impact on expression of FOXA2 / impact on expression of LMX1A: dynamic profile, 12 effectors. How it is done: To test additional factors like FGF8 that is routinely used in midbrain differentiation protocols, we ran another 12-factor experiment consisting of LDN193189, BMP7, A 83-01, Activin A, Takinib, PD0325901, MK2206, FGF8b, AZD3147, MHY1485, GSI-XX and Yhhu 3792. Similar to the previous experiment, hiPSCs were treated with stage 1 media for 3 days and then treated with 96 conditions of combinations of the factors for an additional 3 days. When this model was optimized for maximum expression of FOXA2, BMP7 with factor contribution of 13.7 and MK2206 with 14.2 had the most impact on its expression followed by AZD 3147 with factor contribution of 10.9.
(§1) To assess the impact of elimination of each validated factor, we used dynamic profile analysis and compared the expression level of genes of interest in absence of each finalized factor while others are present.
In the stage 2 recipe, each of the six finalized factors were removed while the other five factors were present and the expression levels of FOXA2, LMX1A and GBX2 were assessed, compared to the levels in the presence of all factors. According to the first experiment model, the absence of TTNPB lead to a rise of GBX2 expression, while the value of FOXA2 and LMX1A reduced drastically from 10,000 to 0 and 30,000 to 15,000, respectively. The absence of A 83-01 reduced the expression of FOXA2 from 10,000 to 7000, however, as expected, the value of LMX1A increased from 30,000 to 40,000. […] According to the second experiment model, the absence of BMP7 and MK2206 both reduced the level of FOXA2 while increasing the value of LMX1A, with BMP7 as the main effector that led to 0 expression of FOXA2.

Test [2] deals with stage 2 neural progenitors. Briefly: HD-DoE another 12-factor model for stage 3 recipe (FIG. 24, 25, 30). The format is cell-based, human. The note with it: for level of MSX1 in absence of the factor / level of SOX6 in absence of the factor: AZD3147, DBZ, PD0325901 and BMP7 set; for level of MSX1 in absence of the factor: 45 with all factors; for level of SOX6 in absence of the factor: 185 with all factors; for impact on expression of MSX1 / impact on expression of SOX6: dynamic profile, 12 effectors. On the procedure:
In another 12-factor model, additional factors including Activin A, Takinib (TAK inhibitor), FGF8b, AZD3147 (mTOR antagonist), MHY1485 (mTOR agonist), and Yhhu-3792 (Notch agonist) were tested. Some of the factors from previous model (BMP7, A 8301, LDN193189, PD0325901, MK2206 and DBZ) were also included.
(§2) To assess the impact of elimination of each validated factor identified in Example 5 for the stage 3 and stage 4 recipes, we used dynamic profile analysis and compared the expression level of genes of interest in absence of each finalized factor while others are present.
In another model, to determine the combinatorial effect of AZD3147 and DBZ on gene profile of cells in presence of other factors of final recipe, the expression levels of SOX6 and MSX1 were compared in the absence of each of the factors in the presence of PD0325901 and BMP7. These two compounds were the only final compounds that were included in inputs of this experimental model The results are shown in FIG. 30A and FIG. 30B. […] When DBZ was removed, the level of SOX6 and MSX1 both decreased to 140 and 35, respectively.

For the next test, the system named is MB neural progenitors. Briefly: HD-DoE 8-factor model, DBZ and AZD3147 (FIG. 26). To be noted: dynamic profile. Type of test: cell-based, human.
In test [3] the test system is human pluripotent stem cells. Briefly: HD-DoE 13-factor experiment for stage 1 recipe, gene expression modeled after 3-day treatment; dynamic profile and factor criticality analysis. The format is cell-based.
Excerpt: This example utilizes a method of High-Dimensional Design of Experiments (HD-DoE), as previously described in Bukys et al. (2020) Iscience 23:101346. The method employs computerized design geometries to simultaneously test multiple process inputs and offers mathematical modeling of a deep effector/response space. The method allows for finding combinatorial signaling inputs that control a complex process, such as during cell differentiation. It allows testing of multiple plausible critical process parameters, as such parameters impact output responses, such as gene expression. Because gene expression provides hallmark features of the phenotype of, for example, a human cell, the method can be applied to identify, and understand, which signaling pathways control cell fate. In the current example, the HD-DOE method was applied with the intent to find conditions for induction of midbrain neural progenitor-expressed genes, directly from the pluripotent stem cell state.
To develop the recipe for each stage, the impact of agonists and antagonists of multiple signaling pathways (referred to herein as “effectors”) on the expression of two sets of 53 pre-selected genes after a 3-day treatment was tested and modeled. These effectors are small molecules or proteins that are commonly used during stepwise differentiation of stem cells to specific fates. The choice of the effectors to test was based on current literature on neural induction in the midbrain region of the developing brain and differentiation of stem cells to neural progenitors.
To test the effectors, experiments with at least 8 factors were designed that can assess the response of cells to 48 or more different combinations of effectors in a range of concentrations. To analyze the models, we focused on expression of genes expressed in the midbrain region, including OTX2, DMBX1, FOXA2, LMX1A, and on the absence of GBX2, which is a hindbrain marker. The impact of each effector on gene expression level is defined by a parameter called factor contribution that is calculated for each effector during the modeling.
To identify the recipe of stage 1 of differentiation, cells were treated with various effectors for 3 days and the gene expression of cells was modeled. […] This model consisted of 13 factors including LDN193189, PD173074, BLU9931, Purmorphamine, SC79, MK2206, ZM336372, PD0325901, CHIR99021, XAV939, UCLA-gp130, Tofacitinib and GO 6983.
as §1
In the stage 1 recipe, each of the five finalized factors were removed while the other four factors were present and the expression levels of OTX2, DMBX1, FOXA2 and LMX1A was assessed compared to the levels in the presence of all five factors (FIG. 11A-B). […] Expression level of DMBX1 increased in absence of LDN193189, however values of OTX2, FOXA2 and LMX1A decreased.

In test [4] the test system is stage 2 neural progenitors. Briefly: HD-DoE 12-factor model for stage 3 recipe (FIG. 19-23, 29). The format is cell-based, human.
Excerpt: To develop the neuronal differentiation recipes, the impact of various agonist and antagonists (effectors) on maturation of MB neural progenitors was investigated using the HD-DoE method described in Example 1. These effectors were chosen based on available literature on developmental biology, differentiation of stem cells as well as mouse and human single cell RNA-seq data from midbrain neurons at the time.
To engineer the recipe of stage 3 of differentiation, cells were first cultured in the stage 1 and stage 2 media as described herein, then they were treated with combinations of 8 or 12 factors for 3 days and the gene expression of cells in each condition was modeled. To guide the cells towards a subtype of midbrain dopaminergic neurons that reside in Substantia Nigra pars compacta (SNc) region of the brain, neural progenitors need to be SOX6^+ (Pereira et al. (2021) Cell Rep. 37:109975 Oosterveen et al. (2021) Stem Cell Reports 16:2718-2735 Poulin et al. (2020) Trends Neurosci. 43:155-169). CORIN, NGN2 and MSX1 are other markers involved in neurogenesis of dopaminergic neurons originating from floorplate region of developing midbrain (Wang et al. (2020) Cells 9:1489; Samata et al. (2016) Nat Commun. 7:13097; Ono et al. (2007) Development 134:3213-3225; Prakash et al. (2006) J. Physiol. 575:403410).
Therefore, we focused on maximizing expression of SOX6, CORIN, NGN2 and MSX1 in modeling experiments. One of the 12-factor models, the results of which are shown in FIG. 19, including LDN193189, AGN193109, BMP7, TTNPB, PD0325901, A8301, MHY1485, CHIR99021, XAV939, SANT-1, Purmorphamine and MK2206, provided a combination set that could maximize expression level of CORIN to more than 2000.
as §2
In the stage 3 recipe, each of the finalized factors were removed in their respective models while other factors were present and the expression level of genes of interest was assessed compared to presence of all factors. When AGN193109 was excluded, level of all CORIN, KCNJ6, MSX1 and SOX6 decreased from 900 to 450, 50 to 35, 140 to 110 and 105 to 60, respectively. […] When PD0325901 was removed, expression levels of CORIN and KCNJ6 increased to 1200 and 70 while levels of MSX1 and SOX6 decreased to 105 and 20. In the absence of CHIR99021, the expression level of CORIN was again increased to 1200 while the level of KCNJ6 and MSX1 dropped to 50 and 115. […] Therefore, it was decided to include this compound in the final recipe. […] Therefore, CHIR99021 was also included in the final recipe.

As for `C[C@H]1COCCN1c1cc(C2(S(=O)(=O)C3CC3)CC2)nc(-c2ccc(NC(=S)NCCO)cc2)n1` [AZD 3147], in test [1], the “impact on expression of FOXA2” value is given as “did not reduce” and the “impact on expression of LMX1A” value was “significant positive impact”. In addition, in test [1] (model optimized for maximum expression of FOXA2, positive impact), the factor contribution worked out at 10.9. In test [1] (stage 2 recipe, second experiment model), the “level of FOXA2 in absence of the factor” value is “almost no effect”. The “level of LMX1A in absence of the factor” value in test [1] (stage 2 recipe, second experiment model, 4000 with all factors) turned out to be 2000. Besides, in test [2], the “level of MSX1 in absence of the factor” value is reported as “did not change”, the “level of SOX6 in absence of the factor” value is reported as 150, the “impact on expression of MSX1” value is listed as “did not show any significant impact” and the “impact on expression of SOX6” value is “positive impact”. For the same molecule, in test [2] (model optimized for SOX6, positive impact), the factor contribution is listed as 20.2. For the same molecule, the “impact on expression of CORIN, KCNJ6, SOX6 and MSX1” value in the test with MB neural progenitors is “positive regulatory effect; also recorded: Positive impact”.
Regarding `O=C(NOC[C@H](O)CO)c1ccc(F)c(F)c1Nc1ccc(I)cc1F` [PD0325901], in test [3] (dynamic profile, 13 effectors), the “impact on expression of OTX2” value is recorded as “positive impact”. The factor contribution in test [3] (model optimized for maximum expression of OTX2, positive impact, 3-day treatment) worked out at 18.1; in test [4] (model optimized for maximum expression of KCNJ6, positive regulators), 10.9; in test [4] (model optimized for maximum expression of SOX6, positive impact) it was 13.5. Further, the “expression level of LMX1A in absence of the factor” value in test [3] (stage 1 recipe, other four factors present, 300 with all five factors) is recorded as 500. In test [3] (stage 1 recipe, other four factors present, 600 with all five factors), the “expression level of FOXA2 in absence of the factor” value was determined as 700. The “expression level of DMBX1 in absence of the factor” value in test [3] (stage 1 recipe, other four factors present, 3000 with all five factors) was found to be 900. The “expression level of KCNJ6 in absence of the factor” value in test [4] (stage 3 recipe, other factors present, 50 with all factors) is 70. For the same molecule, the “expression level of SOX6 in absence of the factor” value in test [4] (stage 3 recipe, other factors present, 105 with all factors) turned out to be 20. Also, the “expression level of MSX1 in absence of the factor” value in test [4] (stage 3 recipe, other factors present, 140 with all factors) is on record as 105. In test [4] (stage 3 recipe, other factors present, 900 with all factors), the “expression level of CORIN in absence of the factor” value is on record as 1200. The “level of MSX1 in absence of the factor” value in test [2] was 40. In addition, in test [2], the “level of SOX6 in absence of the factor” value amounted to 165. Also, in test [2], the “impact on expression of SOX6” value is recorded as “positive impact”.
Regarding `CCCn1/c(=N/C(=O)c2cccc(C(N)=O)c2)[nH]c2ccccc21` [Takinib], in test [1], the “impact on expression of FOXA2” value is “did not make a meaningful positive change” and the “impact on expression of LMX1A” value was “did not make a meaningful positive change”. Besides, in test [2], the “impact on expression of MSX1” value is “negatively regulate; also recorded: negative impact” and the “impact on expression of SOX6” value is on record as “positive effect”.

B1: Activin A: effector tested in the HD-DoE experiments (protein, UniProt P08476 311-426, looked up)
Inhibin beta A chain: GLECDGKVNICCKKQFFVSFKDIGWNDWIIAPSGYHANYCEGECPSHIAGTSGSSLSFHSTVINHYRMRGHSPFANLKSCCVPTKLRPMSMLYYDDGQNIIKKDIQNMIVEECGCS
modifications: Inhibin beta A chain
Regarding B1, in test [1], the “impact on expression of FOXA2” value is on record as “did not make a meaningful positive change” and the “impact on expression of LMX1A” value is “did not make a meaningful positive change”. Further, in test [2], the “impact on expression of MSX1” value is “negatively regulate; also recorded: negative impact” and the “impact on expression of SOX6” value is on record as “positive effect”.
